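Cultured in 96-well plates, cells were exposed to test compound for 48 hours across five concentrations. At the GI50, growth is halved. TGI: total growth inhibition.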
Key:
Assay in all cases: NCI-60 cell line screen, 48 h
K-562 leukemia = system: K-562 leukemia
NCI-H460 lung = system: NCI-H460 lung
CAKI-1 renal = system: CAKI-1 renal
NCI-H23 lung = system: NCI-H23 lung
MOLT-4 leukemia = system: MOLT-4 leukemia
A498 renal = system: A498 renal
U251 CNS = system: U251 CNS
NCI/ADR-RES ovarian = system: NCI/ADR-RES ovarian
SF-295 CNS = system: SF-295 CNS
EKVX NSCLC = system: EKVX NSCLC

Compound | GI50 (K-562 leukemia) [µM] | TGI (K-562 leukemia) [µM] | GI50 (NCI-H460 lung) [µM] | TGI (NCI-H460 lung) [µM] | GI50 (CAKI-1 renal) [µM] | TGI (CAKI-1 renal) [µM] | GI50 (NCI-H23 lung) [µM] | TGI (NCI-H23 lung) [µM] | GI50 (MOLT-4 leukemia) [µM] | TGI (MOLT-4 leukemia) [µM] | GI50 (A498 renal) [µM] | TGI (A498 renal) [µM] | GI50 (U251 CNS) [µM] | TGI (U251 CNS) [µM] | GI50 (NCI/ADR-RES ovarian) [µM] | TGI (NCI/ADR-RES ovarian) [µM] | GI50 (SF-295 CNS) [µM] | TGI (SF-295 CNS) [µM] | TGI (EKVX NSCLC) [µM] | GI50 (EKVX NSCLC) [µM]
O=C(CCl)Nc1ccccc1SCc1cc(Cl)cc2c1OCOC2 | 3.35 | 25.1 | 18.4 | 38.1 | 5.5 | 32.6 | 9.58 | 31.2 | 2.6 | 7.51 | 12.9 | 26.2 | 16.1 | 31.3 | 17.5 | 84.8 | 20 | 41.9 | – | –
O=C1C2c3[nH]c4ccccc4c3C3CCSCC3C2C(=O)N1c1ccccc1 (stereo not given) | – | > 100 | – | > 100 | – | > 100 | – | > 100 | – | > 100 | – | > 100 | – | > 100 | – | – | – | > 100 | > 100 | –
N#Cc1c2ccccc2c2nnc3cc(C(F)(F)F)ccc3n12 | 48.3 | > 100 | 37.1 | > 100 | 38.6 | > 100 | – | – | 34.7 | > 100 | – | – | 51.2 | > 100 | – | – | 96.3 | > 100 | > 100 | > 100
CC1=CCP(C(F)(F)F)P(C(F)(F)F)C1 (stereo not given) | – | > 100 | – | > 100 | – | > 100 | – | > 100 | – | > 100 | – | > 100 | – | > 100 | – | – | – | > 100 | > 100 | –
COc1ccc(-n2c(-c3ccc(NC(=O)CCCl)cc3)nnc2-c2cc(OC)c(OC)c(OC)c2)cc1 | – | – | 2.5 | 7.33 | – | – | 3.66 | > 14.3 | 3.4 | 10.6 | 3.82 | 12.8 | 3.69 | 13.5 | 4.55 | > 14.3 | 5.02 | > 14.3 | > 14.3 | 3
O=C1C(c2ccc(Cl)cc2)=[N+]([O-])c2ccccc21 | – | 68.5 | – | 37.6 | – | – | – | 31.2 | – | > 100 | – | 86.9 | – | 31.5 | – | – | – | 42.2 | 28.9 | –
COc1cccc2c(Nc3ccc(C(=O)NCCNCCO)cc3)cc(-c3ccccc3)nc12 | 22.3 | 64.9 | – | – | > 100 | > 100 | 63.3 | > 100 | – | – | 62.5 | > 100 | 5.89 | 24.9 | > 100 | > 100 | 40.9 | > 100 | > 100 | > 100
Cc1ccc(C2=[N+]([O-])c3ccccc3C2=O)cc1 | – | 41 | – | > 100 | – | > 100 | – | > 31.6 | – | > 70 | – | > 100 | – | 44.9 | – | – | – | > 72.5 | 51.7 | –
O=NN(CCCl)C(=O)NCc1ccc[n+]([O-])c1 | – | > 100 | – | > 100 | – | > 100 | – | > 100 | – | > 100 | – | – | – | > 100 | – | – | – | > 100 | > 100 | –
O=C(c1ccccc1)c1ccc2cccc(O)c2n1 | – | > 100 | – | – | – | > 100 | – | > 100 | – | 70.9 | – | – | – | 68.3 | – | – | – | 52.7 | 69 | –
N.N.NCCCCN.O=C([O-])CC(=O)[O-].O=C([O-])CC(=O)[O-].[Pt+4].[Pt+4] | > 100 | > 100 | 9.62 | > 100 | 79 | > 100 | 89.1 | > 100 | 52.8 | > 100 | > 100 | > 100 | 48.5 | > 100 | – | – | > 100 | > 100 | > 100 | > 100
OCc1ccc(N(Cc2ccc(F)cc2)C2CCC2)cc1Cl | 1.01 | 15 | 0.275 | 10.2 | 0.619 | 4.02 | 9.41 | 25.4 | 15.7 | 36.7 | 0.0332 | 0.156 | 1.02 | 16.2 | 12.7 | 27.8 | 0.437 | 12.9 | – | –
COC(=O)C/C(C)=C/[C@@H](O)[C@H]1O[C@@H]2CC/C(Cl)=C/C/C=C(/C)[C@H](OC(C)=O)CC(=O)O[C@@H]1C2 | 4.34 | > 25 | 0.367 | 13.8 | – | – | 1.14 | 7.74 | 6.15 | 19.8 | – | – | 4.55 | 13.2 | 9.91 | > 25 | – | – | 14.3 | 4.93
N#C[C@]12CC3(CC[C@H]1CC1(C2)OCCO1)OCCO3 | – | > 100 | – | > 100 | – | > 100 | – | – | – | > 100 | – | > 100 | – | > 100 | – | – | – | – | – | –
Cc1ccc(C)c(-n2c(-c3ccc(Br)cc3)csc2=NC(=O)c2ccccc2F)c1 | 3.47 | > 100 | – | – | – | – | – | – | – | – | > 100 | > 100 | > 100 | > 100 | > 100 | > 100 | 52.4 | > 100 | > 100 | > 100
O=[N+]([O-])c1ccc(OCCNc2cccc3ccccc23)cc1 | – | > 100 | – | > 100 | – | > 100 | – | > 100 | – | > 100 | – | > 100 | – | > 100 | – | – | – | > 100 | > 100 | –
CCCCCCC(O)C/C=C/CCCCCC/C(C(=O)OC)=C(/O)C(=O)OCC (stereo not given) | – | > 100 | – | > 100 | – | > 100 | – | > 100 | – | > 100 | – | > 100 | – | > 100 | – | – | – | > 100 | > 100 | –
CC(C)(C)C(=O)Nc1ccccc1Br | – | > 100 | – | > 100 | – | > 100 | – | – | – | > 100 | – | – | – | > 100 | – | – | – | > 100 | > 100 | –
CCN(Cc1ccc(F)cc1F)c1ccc(CO)c(Cl)c1 | 1.65 | > 100 | 0.259 | 6.68 | 5.11 | > 54.1 | 9.05 | 24.3 | 19.7 | > 71.5 | 0.0316 | 0.136 | 0.641 | 18.8 | 12.6 | 32 | 0.513 | 14.7 | – | –

From PubChem BioAssay (NCI)
